Legend:
clinical = details: human, in vivo
Protocol: Blood was collected for NLX-112 plasma concentration measurements on Days 14, 21, 28, 42 and 70 (Visits 4, 5, 6, 7 and 9).
The concentration of NLX-112 was determined in 120 human plasma samples collected from the clinical study. The bioanalysis was performed in the calibration range of 1.0 ng/ml to 1620 ng/ml using a 35 μL sample volume.
The Qualification Runs 1 and 2 contained two calibration curves, six sets of QC samples at eight levels (QC1 to QC8), as well as UPLC and Tecan Carry-over test samples. The analytical run 1 contained two calibration curves, four sets of QC samples at three levels (QC L, M and H), as well as […] and Tecan Carry-over test samples. The qualification and analysis was performed in an exploratory setting.
The analytical instrumentation consisted of an Acquity UPLC system coupled to a Xevo-TQS micro tandem quadrupole mass spectrometer (Waters Corp., Milford, MA, USA). […]
A combined calibration curve was constructed from the two sets of calibration samples for each run. […] The lower limit of quantification (LLOQ) for the method was 1.0 ng/mL and the upper limit of quantification (ULOQ) was 1620 ng/mL of NLX-112 in human plasma.
The mean NLX-112 blood plasma concentration measured in treated patients on study days 14 (Visit 4), […] (Visit 5), 28 (Visit 6), 42 (Visit 7), and 70 (Visit 9) is shown in Table 5. […]

[1] = test system: L-DOPA-induced dyskinesia in rat; details: 2-week treatment period; cited from earlier work
PD patients with LID [2] = test: King's Parkinson's Disease Pain Scale (KPPS); type: in vivo, human; details: for KPPS, mean change from baseline: per-protocol set, p < 0.01 vs baseline
Text: The KPPS is a rater-interview-based scale conducted with the patient and caregiver (if available). It is a 14-item scale covering 7 domains of pain: • z. Musculoskeletal pain • aa. Chronic pain • bb. Fluctuation-related pain • cc. Nocturnal pain • dd. Orofacial pain • ee. Edema/swelling; discoloration • ff. Radicular pain Each item is scored by severity (0-3; none to very severe) multiplied by frequency (0-4; never to all the time), for an item sub score of 0-12, resulting in a total score from 0 to 168. Ratings are based on the previous month, or in the case of this study, the intervening period since the previous clinic visit (about 3 weeks). Treatment effects would be analyzed as change from baseline for total score and for individual pain domains.

PD patients with LID [3] = test: Epworth Sleepiness Scale (ESS); type: in vivo, human; details: for ESS, mean change from baseline: per-protocol set
Text: The ESS is a self-administered questionnaire with 8 questions. Respondents are asked to rate, on a 4-point scale (0-3), their usual chances of dozing off or falling asleep while engaged in 8 different activities. The ESS score (the sum of 8 item scores, 0-3) can range from 0 to 24. Ratings are based on the previous month, or in the case of this study, the intervening period since the previous clinic visit (about 3 weeks).

MPTP-treated marmosets = details: in vivo; cited from earlier work
[4] = per-protocol set (n = 15), Baseline

For `Cc1ccc(CNCC2(F)CCN(C(=O)c3ccc(F)c(Cl)c3)CC2)nc1` [NLX-112, (3-chloro-4-fluoro-phenyl)-[4-fluoro-4-{[(5-methyl-pyridin-2-ylmethyl)-amino]-methyl}piperidin-1-yl]methanone], which concentration at 14 day (clinical) is on record?
The concentration at 14 day was 32.3 ng/mL.

What about the concentration at 25 day (clinical) of the same compound?
The concentration at 25 day was 38.7 ng/mL.

What about the “antidyskinetic efficacy against L-DOPA-induced dyskinesia” value [1] of the same compound?
The value was “did maintain its antidyskinetic efficacy”.

And the “KPPS total score (reported pain), change from baseline” value (PD patients with LID [2]; Day 42, also seen with placebo)?
The value was “statistically significant improvement”.

And the “KPPS, mean” value (PD patients with LID [2]; [4])?
Its value is 16.0.

What about the “KPPS, mean change from baseline” value (PD patients with LID [2]; Δ D 28 (end of up-titration)) of the same compound?
Its value is −4.6.

And the “KPPS, mean change from baseline” value (PD patients with LID [2]; Δ D 42 (end of stable dosing))?
The value was −4.8.

What about the “sleepiness (ESS)” value (PD patients with LID [3]; Days 28 or 42) of the same compound?
The value was “no consistent statistically significant effect”.

And the “ESS, mean” value (PD patients with LID [3]; [4])?
Its value is 8.3.

And the “ESS, mean change from baseline” value (PD patients with LID [3]; Δ D 28 (end of up-titration))?
The value was −1.1.

What about the “ESS, mean change from baseline” value (PD patients with LID [3]; Δ D 42 (end of stable dosing)) of the same compound?
The value was −0.9.

And the disability scores (MPTP-treated marmosets)?
The disability scores was “reduces disability scores”.

Source: patent publication US20250295648A1 (priority 2024, published 2025)
